As usually defined, the melting point is the temperature, or range, at which the solid turns liquid. `CN(C)S(=O)(=O)c1ccccc1-c1cnc(N)c(C(=O)Nc2cccnc2)n1` [Example 235, 3-Amino-6-{2-[(dimethylamino)sulfonyl]phenyl}-N-pyridin-3-ylpyrazine-2-carboxamide]: the melting point fell in the range of 221.5 to 223 °C.

The values are drawn from patent publication US20060052396A1, “Arylamines for the treatment of conditions associated with gsk-3” (priority 2001, published 2006).
